In ChEMBL document CHEMBL5338790, “Discovery of Subcellular-Targeted Aza-BODIPY Photosensitizers for Efficient Photodynamic Antitumor Therapy” (J Med Chem, 2023):
Activity calls are given as the source filed them. No cut-off for these calls is given here.

Assays:
[1] = tested on: B16-F10; experiment: Photodynamic cytotoxicity against mouse B16-F10 cells assessed as inhibition of cell viability incubated for 3 hrs followed by photo-irradiation at 54 J/cm2 measured after 24 hrs by CCK8 assay; format: functional, cell-based; details: B16-F10, light or radiation study
[2] = tested on: HeLa; experiment: Photodynamic cytotoxicity against human HeLa cells assessed as inhibition of cell viability incubated for 3 hrs followed by photo-irradiation at 54 J/cm2 measured after 24 hrs by CCK8 assay; format: functional, cell-based; details: light or radiation study
[3] = Cytotoxicity against HUVEC cells assessed as inhibition of cell viability under dark condition incubated for 27 hrs by CCK8 assay; format: toxicity, cell-based; details: human
[4] = Cytotoxicity against mouse B16-F10 cells assessed as inhibition of cell viability under dark condition incubated for 27 hrs by CCK8 assay; format: toxicity, cell-based
[5] = tested on: HUVEC; experiment: Photodynamic cytotoxicity against HUVEC cells assessed as inhibition of cell viability incubated for 3 hrs followed by photo-irradiation at 54 J/cm2 measured after 24 hrs by CCK8 assay; format: functional, cell-based; details: Homo sapiens, light or radiation study
[6] = Cytotoxicity against human HepG2 cells assessed as inhibition of cell viability under dark condition incubated for 27 hrs by CCK8 assay; format: toxicity, cell-based
[7] = Drug uptake in human HeLa cells at 5 uM by confocal scanning microscopy; format: ADME, cell-based; details: 3 h, TDE = time-dependent effect
[8] = tested on: HepG2; experiment: Photodynamic cytotoxicity against human HepG2 cells assessed as inhibition of cell viability incubated for 3 hrs followed by photo-irradiation at 54 J/cm2 measured after 24 hrs by CCK8 assay; format: functional, cell-based; details: HepG2, light or radiation study
[9] = Cytotoxicity against human HeLa cells assessed as inhibition of cell viability under dark condition incubated for 27 hrs by CCK8 assay; format: toxicity, cell-based
[10] = Toxicity in Balb/C nu/nu mouse xenografted with human HeLa cells assessed as change in spleen histology at 2.5 umol/kg, iv with photo-irradiation at 30 J/cm2 after 1 hr of compound administration measured after 24 days by H and E staining based analysis; format: organism-based; details: in vivo, 576 h, dose 2.5 µmol/kg, time 24 day
[11] = Toxicity in Balb/C nu/nu mouse xenografted with human HeLa cells assessed as drug tolerance at 2.5 umol/kg, iv with photo-irradiation at 30 J/cm2 after 1 hr of compound administration measured for 24 days; format: organism-based; details: in vivo, 576 h, dose 2.5 µmol/kg, time 24 day
[12] = tested on: HeLa; experiment: Induction of ROS production in human HeLa cells preincubated for 2 hrs followed by H2DCFDA probe exposure for 30 mins and subsequent removal of probe with photo-irradiation at 16 J/cm2 by confocal scanning microscopic analysis; format: functional, cell-based; details: dose <= 200.0 nM, time 2.5 hrs
[13] = tested on: HeLa; experiment: Antitumor activity against human HeLa cells xenografted in Balb/C nu/nu mouse assessed as reduction in tumor histology at 2.5 umol/kg, iv with photo-irradiation at 30 J/cm2 after 1 hr of compound administration measured after 24 days by H and E staining based analysis; format: functional, organism-based; details: dose 2.5 µmol/kg, time 24.0 day
[14] = tested on: HeLa; experiment: Induction of ROS production in human HeLa cells upto 200 nM preincubated for 2 hrs followed by H2DCFDA probe exposure for 30 mins and subsequent removal of probe by confocal scanning microscopic analysis; format: functional, cell-based; details: time 2.5 hrs
[15] = Toxicity in Balb/C nu/nu mouse xenografted with human HeLa cells assessed as change in kidney histology at 2.5 umol/kg, iv with photo-irradiation at 30 J/cm2 after 1 hr of compound administration measured after 24 days by H and E staining based analysis; format: organism-based; details: in vivo, 576 h, dose 2.5 µmol/kg, time 24 day
[16] = Toxicity in Balb/C nu/nu mouse xenografted with human HeLa cells assessed as change in heart histology at 2.5 umol/kg, iv with photo-irradiation at 30 J/cm2 after 1 hr of compound administration measured after 24 days by H and E staining based analysis; format: organism-based; details: in vivo, 576 h, dose 2.5 µmol/kg, time 24 day
[17] = Toxicity in Balb/C nu/nu mouse xenografted with human HeLa cells assessed as change in lung histology at 2.5 umol/kg, iv with photo-irradiation at 30 J/cm2 after 1 hr of compound administration measured after 24 days by H and E staining based analysis; format: organism-based; details: in vivo, 576 h, dose 2.5 µmol/kg, time 24 day
[18] = Toxicity in Balb/C nu/nu mouse xenografted with human HeLa cells assessed as increase in body weight at 2.5 umol/kg, iv with photo-irradiation at 30 J/cm2 after 1 hr of compound administration measured for 24 days; format: organism-based; details: in vivo, 576 h, dose 2.5 µmol/kg, time 24 day
[19] = tested on: HeLa; experiment: Antitumor activity against human HeLa cells xenografted in Balb/C nu/nu mouse assessed as tumor growth inhibition at 2.5 umol/kg, iv with photo-irradiation at 30 J/cm2 after 1 hr of compound administration measured for 6 days; format: functional, organism-based; details: dose 2.5 µmol/kg, time 6.0 day
[20] = Toxicity in Balb/C nu/nu mouse xenografted with human HeLa cells assessed as change in liver histology at 2.5 umol/kg, iv with photo-irradiation at 30 J/cm2 after 1 hr of compound administration measured after 24 days by H and E staining based analysis; format: organism-based; details: in vivo, 576 h, dose 2.5 µmol/kg, time 24 day
[21] = Drug uptake in human HeLa cells at 5 uM incubated for 3 hrs by confocal scanning microscopy; format: ADME, cell-based
[22] = Drug localization in mitochondria of human HeLa cells at 5 uM incubated for 30 mins by MitoTracker Green FM dye based confocal scanning microscopic analysis; format: ADME; details: 0.5 h
[23] = Drug localization in lysosome of human HeLa cells at 5 uM incubated for 30 mins by Lyso-tracker Green DND-26 dye based confocal scanning microscopic analysis; format: ADME, subcellular; details: 0.5 h
[24] = Drug localization in endoplasmic reticulum of human HeLa cells at 5 uM incubated for 30 mins by ER-Tracker Green dye based confocal scanning microscopic analysis; format: ADME; details: 0.5 h
[25] = tested on: HeLa; experiment: Induction of ROS production in human HeLa cells upto 200 nM preincubated for 2 hrs followed by H2DCFDA probe exposure for 30 mins and subsequent removal of probe with photo-irradiation at 16 J/cm2 by confocal scanning microscopic analysis; format: functional, cell-based; details: time 2.5 hrs
[26] = tested on: HeLa; experiment: Antitumor activity against human HeLa cells xenografted in Balb/C nu/nu mouse assessed as tumor growth inhibition at 2.5 umol/kg, iv with photo-irradiation at 30 J/cm2 after 1 hr of compound administration measured for 24 days; format: functional, organism-based; details: dose 2.5 µmol/kg, time 24.0 day

Structure (SMILES)	IC50 [1] [nM]	IC50 [2] [nM]	IC50 at 27 h [3] [nM]	IC50 at 27 h [4] [nM]	IC50 [5] [nM]	IC50 at 27 h [6] [nM]	Drug uptake [7]	IC50 [8] [nM]	IC50 at 27 h [9] [nM]	other results
Br.COc1ccc2c(c1)CCc1c(-c3ccccc3)c3n(c1-2)[B-](F)(F)[N+]1=C(c2ccc(OCc4cn(CCC[P+](c5ccccc5)(c5ccccc5)c5ccccc5)nn4)cc2)C(I)=C(c2ccccc2)C1=N3	21	2	12500	12800	13.7	11400	Tde	14.3	10600	
COc1ccc(C2=[N+]3C(=Nc4c(-c5ccccc5)c5c(n4[B-]3(F)F)-c3ccc(OC)cc3CC5)C(c3ccccc3)=C2I)cc1	317	62.8	> 50000	> 50000	88.8	> 50000	Tde	85.6	> 50000	Activity [10]: Non-Toxic; Activity [11]: Non-Toxic; Activity [12]: Dose-Dependent Effect; Activity [13]: Active; Activity [14]: inactive; Activity [15]: Non-Toxic; Activity [16]: Non-Toxic; Activity [17]: Non-Toxic; Activity [18]: Non-Toxic; Activity [19]: Active; Activity [20]: Non-Toxic
COc1ccc2c(c1)CCc1c(-c3ccccc3)c3n(c1-2)[B-](F)(F)[N+]1=C(c2ccc(OCc4cn(CCCNC(=O)c5c(F)c(F)c(F)c(F)c5F)nn4)cc2)C(I)=C(c2ccccc2)C1=N3	413	92	> 50000	> 50000	219	> 50000	Tde	179	> 50000	
Br.COc1ccc2c(c1)CCc1c(-c3ccccc3)c3n(c1-2)[B-](F)(F)[N+]1=C(c2ccc(OCC(=O)NCCC[P+](c4ccccc4)(c4ccccc4)c4ccccc4)cc2)C(I)=C(c2ccccc2)C1=N3	33.7	5.5	20100	44400	12.2	25800	Tde	14.3	21300	Activity [12]: Dose-Dependent Effect; Drug uptake [21]: Active; Drug uptake [22]: Active; Activity [14]: inactive; Drug uptake [23]: Not Active; Drug uptake [24]: Not Active; Activity [25]: Active
COc1ccc2c(c1)CCc1c(-c3ccccc3)c3n(c1-2)[B-](F)(F)[N+]1=C(c2ccc(OCc4cn(CCCN5CCOCC5)nn4)cc2)C(I)=C(c2ccccc2)C1=N3	10.4	4.8	> 50000	> 50000	11.3	> 50000	Tde	9.1	25400	
COc1ccc2c(c1)CCc1c(-c3ccccc3)c3n(c1-2)[B-](F)(F)[N+]1=C(c2ccc(OCC(=O)NCCCNC(=O)c4c(F)c(F)c(F)c(F)c4F)cc2)C(I)=C(c2ccccc2)C1=N3	74.8	38.2	> 50000	> 50000	55.8	> 50000	Tde	41.2	> 50000	
C=Cc1c(C)c2cc3nc(c(CC(=O)O)c4[nH]c(cc5nc(cc1[nH]2)C(C)=C5CC)c(C)c4C(=O)O)[C@@H](CCC(=O)O)[C@@H]3C [CHLORIN E6]	2300	955	> 50000	> 50000	799	> 50000		599	> 50000	Activity [10]: Non-Toxic; Activity [11]: Non-Toxic; Activity [26]: inactive; Activity [15]: Non-Toxic; Activity [16]: Non-Toxic; Activity [17]: Non-Toxic; Activity [18]: Non-Toxic; Activity [20]: Non-Toxic
